Laboratory results as given in US8604016B2, “Heterocyclic inhibitors of glutaminase” (Calithera Biosciences Inc., priority 2011, dated 2013).
≈ marks a conversion by molar mass, not a printed value.

Columns and labels:
[1] = Solubility (18 hr vortex mixing at room temperature, filtration, HPLC); format: physicochemical; conditions: thermodynamic from solid
Protocol: Ca. 1 mg portions of test article were combined with 120 μL solvent in wells of a 96×2 mL polypropylene plate. […] The contents of all wells were then filtered through a 0.45 μm GHP filter plate to yield clear filtrates. 5 μL of each filtrate was diluted into 100 μL DMF and vortex mixed to yield HPLC samples. Duplicate quantitation standards for each test article were prepared by diluting weighed portions of solid test article in measured volumes of DMF. 2 μL of each HPLC sample and quantitation standard were analyzed by HPLC using the method outlined in Table 5. Dissolved test article concentrations were calculated by peak area ratio against the appropriate quantitation standards.

Caco-2 cell monolayers = experiment: Caco-2 Permeability Assay (bidirectional); format: in vitro ADME
From the text: (§1) Caco-2 cells are commonly used in a confluent monolayer on a cell culture insert filter. When cultured in this format and under specific conditions, the cells become differentiated and polarized such that their phenotype, morphologically and functionally resembles the enterocytes lining the small intestine. The cell monolayer provides a physical and biochemical barrier to the passage of small molecules, and is widely used across the pharmaceutical industry as an in vitro model of the human small intestinal mucosa to predict the absorption of orally administered drugs (Hidalgo et al., Gastroenterology, 1989; Artursson, J. Pharm. Sci., 1990). The correlation between the in vitro apparent permeability (P ? app) across Caco-2 monolayers and the in vivo absorption is well established (Artursson et al., Biochem. Biophys. Res. Comm., 1991).
(§2) The present assay was used to determine the bidirectional permeability of the compounds of the invention through Caco-2 cell monolayers. Caco-2 cells were grown in confluent monolayers where the media of both the apical (A) and basolateral (B) sides were at pH 7.4. Compounds were dosed at 1 μM in the presence of 200 μM Lucifer Yellow, on the apical side (A→B) or the basolateral side (B→A) for assessment, in duplicate.
(§3) The absorption potential of compounds were classified as either Low (P-app <1×10^−6 cm/s) or High (P-app >1×10^−6 cm/s).

[2] = Caco-2 Permeability Assay (bidirectional); format: in vitro ADME; conditions: human; for recovery at 120 min, 1 μM / Papp A→B at 120 min, 1 μM / Papp B→A at 120 min, 1 μM: pH 7.4; for efflux ratio at 120 min, 1 µM / Papp A→B at 120 min, 1 μM / Papp B→A at 120 min, 1 μM / permeability class (Low/High absorption potential) at 120 min, 1 µM: Caco-2; for efflux ratio at 120 min, 1 µM: (Papp B→A)/(Papp A→B); for Papp A→B at 120 min, 1 μM: Direction A→B; for Papp A→B at 120 min, 1 μM / Papp B→A at 120 min, 1 μM: unit not given (thresholds in 10^−6 cm/s); for Papp B→A at 120 min, 1 μM: Direction B→A; for permeability class (Low/High absorption potential) at 120 min, 1 µM: read-out: Permeability Classification
From the text: as §1, §2, §3

[3] = 50 mM citrate buffer pH 2.3, 20 °C, aqueous buffer, 50 mM Cit pH 2.3, room temperature
[4] = 50 mM citrate buffer pH 3.3, 20 °C, aqueous buffer, 50 mM Cit pH 3.3, room temperature
[5] = 50 mM citrate buffer pH 4.4, 20 °C, aqueous buffer, 50 mM Cit pH 4.4, room temperature
[6] = 50 mM citrate buffer pH 5.4, 20 °C, aqueous buffer, 50 mM Cit pH 5.4, room temperature
[7] = 20 °C, aqueous buffer, PBS, room temperature
[8] = 20 °C, aqueous with cosolvent or surfactant or cyclodextrin, 10% CrEL/50 mM cit, room temperature
[9] = 20 °C, aqueous with cosolvent or surfactant or cyclodextrin, 10% PS80/50 mM cit, room temperature
[10] = 20 °C, aqueous with cosolvent or surfactant or cyclodextrin, 20% HPBCD/50 mM cit, room temperature
[11] = 20 °C, aqueous with cosolvent or surfactant or cyclodextrin, 20% SBECD/50 mM cit, room temperature
[12] = 20 °C, oil or lipid, Capryol 90, room temperature
[13] = 20 °C, oil or lipid, Capryol PGMC, room temperature
[14] = 20 °C, oil or lipid, Labrasol, room temperature
[15] = 20 °C, oil or lipid, canola oil, room temperature
[16] = 20 °C, organic solvent or mixture, EtOH, room temperature
[17] = 20 °C, organic solvent or mixture, PEG400, room temperature
[18] = 20 °C, organic solvent or mixture, PG, room temperature
[19] = 20 °C, pH 1, simulated gastric fluid, 0.1M HCl, room temperature
[20] = 20 °C, pH 13, aqueous buffer, 0.1M NaOH, room temperature
[21] = 20 °C, saline or isotonic, 0.9% NaCl, room temperature
[22] = water, room temperature (ca. 20 C)

Row | solubility at 18 h [1, 3] [µg/mL] | solubility at 18 h [1, 4] [µg/mL] | solubility at 18 h [1, 5] [µg/mL] | solubility at 18 h [1, 6] [µg/mL] | solubility at 18 h [1, 7] [µg/mL] | solubility at 18 h [1, 8] [µg/mL] | solubility at 18 h [1, 9] [µg/mL] | solubility at 18 h [1, 10] [µg/mL] | solubility at 18 h [1, 11] [µg/mL] | solubility at 18 h [1, 12] [µg/mL] | solubility at 18 h [1, 13] [µg/mL] | solubility at 18 h [1, 14] [µg/mL] | solubility at 18 h [1, 15] [µg/mL] | recovery at 120 min, 1 μM ([2]; Caco-2, pH 7.4, Direction A→B) [%] | recovery at 120 min, 1 μM ([2]; Caco-2, pH 7.4, Direction B→A) [%] | efflux ratio at 120 min, 1 µM [2] | Papp A→B at 120 min, 1 μM [2] [×10⁻⁶ cm/s] | Papp B→A at 120 min, 1 μM [2] [×10⁻⁶ cm/s] | permeability class (Low/High absorption potential) at 120 min, 1 µM [2] [×10⁻⁶ cm/s] | SMILES | Significant Efflux (Caco-2 cell monolayers) | other results
1 | < 2 | < 2 | < 2 | < 2 | < 2 | 228 (≈ 400 µM) | 261 (≈ 457 µM) | 327 (≈ 573 µM) | 125 (≈ 219 µM) | 1740 (≈ 3060 µM) | 1780 (≈ 3120 µM) | 5000 (≈ 8770 µM) | 72 (≈ 126 µM) | 42 | 53 | 3.1 | 7.52 | 23.4 | > 1 | O=C(Cc1cccc(OC(F)(F)F)c1)Nc1ccc(CCCCc2nnc(NC(=O)Cc3ccccc3)s2)nn1 [Compound 585] | Yes (efflux ratios being significant when greater than or equal to 3 when the Papp (B→A) was greater than or equal to 1×10^−6 cm/s) | solubility at 18 h [1, 16]: 1990 µg/mL (≈ 3490 µM); solubility at 18 h [1, 17]: 3940 µg/mL (≈ 6910 µM); solubility at 18 h [1, 18]: 1420 µg/mL (≈ 2490 µM); solubility at 18 h [1, 19]: < 2 µg/mL; solubility at 18 h [1, 20]: 192 µg/mL (≈ 336 µM); solubility at 18 h [1, 21]: < 2 µg/mL; solubility at 18 h [1, 22]: < 2 µg/mL
2 |  |  |  |  |  |  |  |  |  |  |  |  |  | 44 | 57 | 6.6 | 3.75 | 24.7 | > 1 | CC(C(=O)Nc1ccc(CCCCc2nnc(NC(=O)Cc3cccc(CNC(=O)OC(C)(C)C)c3)s2)nn1)c1ccccc1 (centres unmarked) [Compound 436] | Yes (efflux ratios being significant when greater than or equal to 3 when the Papp (B→A) was greater than or equal to 1×10^−6 cm/s) | 
3 | < 2 | < 2 | < 2 | < 2 | < 2 | 55 (≈ 113 µM) | 27 (≈ 55.5 µM) | 167 (≈ 343 µM) | 90 (≈ 185 µM) | 215 (≈ 442 µM) | 1540 (≈ 3160 µM) | 918 (≈ 1890 µM) | < 2 | 89 | 96 | 7.3 | 8.17 | 59.8 | > 1 | O=C(Cc1ccccc1)Nc1ccc(CCCCc2nnc(NC(=O)Cc3ccccc3)s2)nn1 [Compound 295] | Yes (efflux ratios being significant when greater than or equal to 3 when the Papp (B→A) was greater than or equal to 1×10^−6 cm/s) | solubility at 18 h [1, 16]: 83 µg/mL (≈ 171 µM); solubility at 18 h [1, 17]: 1640 µg/mL (≈ 3380 µM); solubility at 18 h [1, 18]: 234 µg/mL (≈ 481 µM); solubility at 18 h [1, 19]: 3 µg/mL (≈ 6.17 µM); solubility at 18 h [1, 20]: 268 µg/mL (≈ 551 µM); solubility at 18 h [1, 21]: < 2 µg/mL; solubility at 18 h [1, 22]: < 2 µg/mL
4 |  |  |  |  |  |  |  |  |  |  |  |  |  | 34 | 42 | 2.6 | 7.59 | 19.6 | > 1 | O=C(Cc1cccc(OC(F)(F)F)c1)Nc1ccc(CCCCc2nnc(NC(=O)Cc3cccc(F)c3)s2)nn1 [Compound 679] | No (efflux ratios being significant when greater than or equal to 3 when the Papp (B→A) was greater than or equal to 1×10^−6 cm/s) | 
